Where no end group is shown, it is not given here.
Columns and labels:
[1] = tested on: ninjurin-expressing Jurkat cell transfectants; test: Inhibition by synthetic peptides of ninjurin-mediated aggregation of ninjurin-expressing Jurkat cell transfectants; assay type: cell-based; conditions: for inhibition of ninjurin-mediated adhesion relative to wild type peptide 6: single amino acid substitutions in residues 26 to 37, dose-dependent test
Method: (§1) Cell adhesion assays. […] Aggregation assays were performed using Jurkat cells (Shimizu et al., (1990) Nature 345, 250-253) stably transfected with pCMV-ninjurin or pCMVneo (nonrecombinant control). The cells were washed twice with RPMI 1640 containing 5 mM Hepes buffer, suspended to a concentration of 2×10^6 cells/ml in RPMI1640 with 10% FCS, and 100 μl of the cell suspension were added to each well of a flat-bottomed 96-well microtiter plate. The formation of aggregates was examined after 1 hr using phase contrast microscopy. […] The ninjurin positive cells were stained red with 1 mM CMTMR (5-(and-6)-(((4-chloromethyl)benzoyl)amino) tetramethylrhodamine) and control cells were stained green with 1 mM CMFTA (5-chloromethylfluoresceindiacetate) as described in the manufacturer's protocol (Molecular Probes). The cells were resuspended to 1×10^6 cells/ml, and 3 ml of the mixed cell suspension was allowed to form aggregates in 6-well culture plates. The composition of the aggregates was monitored by fluorescence microscopy.
To directly investigate whether the N-terminal extracellular hydrophilic region is responsible for the observed homophilic adhesion, partially overlapping synthetic peptides whose sequences collectively encompass the entire predicted ninjurin extracellular domain were tested for their ability to inhibit the ninjurin-mediated adhesion. Aggregation assays with the ninjurin-expressing Jurkat cell transfectants were performed, and the degree of aggregation was examined after 60 minutes by measuring the number of cells incorporated in aggregates. Peptide 2 inhibited aggregation at a concentration of 0.1 mg/ml, and aggregation was completely abolished at concentrations above 1 mg/ml. In constrast, peptides 1 and 4 had no effect on aggregation at either of these concentrations.
To further delimit the site of interaction, an additional 4 peptides (peptides 5 through 8) were tested for their ability to inhibit ninjurin-mediated aggregation (Data not shown). […] To identify the amino acids most critical for ninjurin-mediated adhesion, peptides (9-15) stretching from residue 26 to 37, each containing single amino acid mutations, were tested in the aggregation assay. The ability of each of these peptides to inhibit ninjurin-mediated adhesion in a dose-dependent manner was examined. The seven residues between prolines 27 and 35 (P27 and P35) were most important.

[2] = tested on: Jurkat cells; test: Aggregation assay with Jurkat cells stably transfected with pCMV-ninjurin; assay type: cell-based
Method: as §1
Ninjurin mutants fail to support aggregation. […] To investigate these possibilities, Jurkat cell lines expressing ninjurin molecules containing a double mutation (Arg28 to Asn and Asn29 to Ala) in the ninjurin adhesion motif was generated. […]

[3] = tested on: DRG neurons; test: DRG neuron/CHO cell co-culture neurite outgrowth; assay type: cell-based, rat; conditions: for inhibition of the neurite outgrowth promoting effect of ninjurin: peptides 0.5 mg/ml, E17 rat DRG neurons on CHO cells expressing ninjurin
Method: Cell culture and transfection. Chinese hamster ovary (CHO) cells were cultured in F-12 medium supplemented with 10% fetal calf serum (FCS). T cell leukemia cells (Jurkat) were grown in RPMI 1640 with 10% FCS. The expression vector pCMV-ninjurin was constructed by inserting the ninjurin cDNA into the plasmid pCMVneo (Brewer, C. B. (1994). Methods in Cell Biol. 43, 233-245). The pCMVneo or pCMV-ninjurin plasmids was transfected into CHO cells via calcium phosphate precipitation and into Jurkat cells via electroporation. Stable transfectants were selected by growth in medium containing G418 (400 μg/ml) and individual clones were isolated by limiting dilution. […] Primary cultures of neurons from dorsal root ganglia (DRG) were prepared from E17 rat embryos as previously described (Eichler et al., (1989) Brain Res 482, 340-346). Dissociated neurons were plated on confluent monolayers of either control CHO cells or CHO cell expressing ninjurin in 24-well plates. Cultures were grown in a medium which consists of 90% Eagles minimal essential medium (Gibco), 10% FCS, 20 μg/ml each of fluoro-deoxyuridine and uridine, and 50 ng/ml mouse NGF (gift from E. Johnson, Washington U.). Six hr after plating, the cells were fixed with 4% paraformaldehyde in PBS, and immunohistochemistry using anti-neurofilament H antibodies was performed. Following previously established criteria (Gennarini et al., (1991) Neuron 6, 595-606), approximately 50 neurites were chosen for measurement which each emerged from a single distinguishable cell body, were longer than the diameter of the neuronal cell body, and were identifiable over their entire length. The length of each neurite was measured after tracing them from the photomicrographs onto grided (2 mm) transparency film. Statistical analysis was performed using Sigma Plot (version 3.0). […]
Ninjurin-stimulated neurite outgrowth is mediated through the adhesion motif. […] The neuronal cultures were treated with peptides (0.5 mg/ml) corresponding to either the native or mutant sequences of the ninjurin adhesion motif, and neurite extension was monitored.

[4] = molecular target: the molecule itself; test: aggregation assay, Jurkat cells stably transfected with pCMV-ninjurin against pCMVneo control
Method: as §1, with “250–253)” for “250-253)”, “2 ×10^6” for “2×10^6”, “µl” for “μl”, “1 ×10^6” for “1×10^6”

[5] = tested on: CHO cells; test: Aggregation assay with ninjurin transfected CHO cells; assay type: cell-based, Chinese hamster; conditions: counted at 15 min intervals, 37° C.
Method: For aggregation experiments using CHO cells, cells (ninjurin transfected and control) were harvested from confluent plates by treatment with trypsin, washed with F-12 medium, and resuspended at 1×10^6 cells/ml in F-12 with 10% FCS. Aggregation assays were performed on a rotary shaker at 80 rpm. Quantitation of aggregate formation was monitored at 15 min intervals by counting the number of particles using a hemocytometer (Takeichi, M. (1977). J. Cell. Biol. 75, 464-474). The extent of the aggregate formation is inversely proportional to the number of particles, and was determined by calculating an index Nt/No, where Nt and No were the total particle numbers at incubation times t and 0, respectively (Takeichi, 1977). All of the aggregation experiments were performed at 37° C.

[6] = ninjurin-expressing Jurkat transfectants, aggregation examined after 60 minutes

For “9: residues 26 to 37 with substitution of Arg28 to Asn28 (SEQ ID NO:14) (PPNWGLRNRPIN; Rat) [Peptide 9]”, the “inhibition of ninjurin-mediated adhesion relative to wild type peptide 6” value [1] was “less active”.

“10: residues 26 to 37 with substitution of Trp29 for Ala29 (SEQ ID NO:15) (PPRAGLRNRPIN; Rat) [Peptide 10]” was tested, and the “inhibition of ninjurin-mediated adhesion relative to wild type peptide 6” value [1] was “less active”.

For “11: residues 26 to 37 with substitution of Gly29 to Ala29 (SEQ ID NO:16) (PPRWALRNRPIN; Rat) [Peptide 11]”, the “inhibition of ninjurin-mediated adhesion relative to wild type peptide 6” value [1] was “did not exhibit altered inhibition”.

In the case of “12: residues 26 to 37 with substitution of Leu31 to Asn31 (SEQ ID NO:17) (PPRWGNRNRPIN; Rat) [Peptide 12]”, the “inhibition of ninjurin-mediated adhesion relative to wild type peptide 6” value [1] is reported as “did not exhibit altered inhibition”.

In the case of “13: residues 26 to 37 with substitution of Arg32 for Asn32 (SEQ ID NO:18) (PPRWGLNNRPIN; Rat) [Peptide 13]”, the “inhibition of ninjurin-mediated adhesion relative to wild type peptide 6” value [1] is reported as “less active”.

“15: residues 26 to 37 with substitution of Arg34 for Asn34 (SEQ ID NO:20) (PPRWGLRNNPIN; Rat) [Peptide 15]” was tested, and the “inhibition of ninjurin-mediated adhesion relative to wild type peptide 6” value [1] was “less active”.

O=C(O)CN(CCN(CC(=O)O)CC(=O)O)CC(=O)O [EDTA, reference compound] was tested, and the “aggregate formation in the presence of EDTA” value ([2]; ninjurin-expressing Jurkat cells, 1 mM EDTA) was “no aggregates were detected”.

With PPRWGLRNRPIN [Peptide 6] the “inhibition of the neurite outgrowth promoting effect of ninjurin” value [3] was “inhibited”, the “inhibitory activity on ninjurin-mediated aggregation compared with other peptides” value [1] was “comparable to peptides 2 or 3” and the “concentration at which aggregation was completely abolished” value [1, 6] was “above 2 mg/ml”. The “concentration at which aggregation was inhibited” value [1, 6] was “higher than 0.4 mg/ml”.

For “Peptide 14: residues 26 to 37 with substitution of Asn33 for Leu33 (SEQ ID NO:19) (PPRWGLRLRPIN; Rat)”, the “inhibition of ninjurin-mediated adhesion relative to wild type peptide 6” value [1] was “more effective” and the “inhibition of ninjurin-mediated adhesion relative to wild type peptide 6” value ([1]; listed as Asn-33 to Leu33) was “greater inhibitory activity than wild type”.

With “peptide containing a mutation in this sequence: peptide with a mutant sequence of the ninjurin adhesion motif; which mutation is not stated (PPRWGLRNRPIN; Rat)” the “inhibition of the neurite outgrowth promoting effect of ninjurin” value [3] was “no significant inhibitory effect”.

B1: rat ninjurin (other)
chain: MDPGTEEYELNGDLRPGSPGSPDASPPRWGLRNRPINVNHYANKKSAAESMLDIALLMANASQLKAVVEQGNEFAFFVPLVVLISISLVLQIGVGVLLIFLVKYDLNNPAKHAKLDFLNNLATGLVFIIVVVNIFITAFGVQKPVMDVAPRQ
notes: Full-length rat ninjurin (152 amino acids) expressed from pCMV-ninjurin in stably transfected Jurkat or CHO cells; In protein blots and immunoprecipitations it came from cell or tissue lysates; also called rat ninjurin 1; Nerve Injury Induced protein
B1: binds [4].

B2: ninjurin: Nerve Injury Induced protein, 152 amino acids, rat (SEQ ID NO:4), expressed on transfected cells (protein)
chain: MDPGTEEYELNGDLRPGSPGSPDASPPRWGLRNRPINVNHYANKKSAAESMLDIALLMANASQLKAVVEQGNEFAFFVPLVVLISISLVLQIGVGVLLIFLVKYDLNNPAKHAKLDFLNNLATGLVFIIVVVNIFITAFGVQKPVMDVAPRQ
modifications: Rat
With B2 the “number of particles (aggregate formation)” value [5] was “decrease in the number of particles with time”, the aggregate formation ([2]; transfected Jurkat cells, after 1 hr) was “formation of large aggregates” and the average neurite length ([3]; neurons grown for 6 hr on CHO cells expressing ninjurin, approximately 50 neurons) was 569±134 μm.

From patent publication US6559288B1, “Ninjurin” (Washington University, priority 1996, dated 2003)
